Data as given in patent US20090305960A1, “Melanocortin Receptor-Specific Peptides for Treatment of Obesity / 669” (Palatin Technologies, Inc, priority 2008, published 2009).
“And” between values parts separate entries of the source, which are not always exact repeats. Equal values may be shown once. Read-outs that look alike come from different tables or passages of the source. Blank lines part the entries; values can stand above or below the molecule they belong to. *1 amine or outer side, *2 acyl side, *3 side chain or, on linkers, in order; H or OH if unused. Where a SMILES comes first, the peptide text is derived from it. Bridges are numbered along the chain shown (N, C = ends). [ ]: non-standard residue; d: D form. Ser(Bzl) = O-benzyl-L-serine, O=C([C@H](COCc1ccccc1)N[*:1])[*:2]; Orn = NCCC[C@H](N)C(=O)O

How the values were obtained:
hMC4-R [1] = target: T1, hMC4-R (Homo sapiens, UniProt P32245); assay: Competitive binding assay using Eu-NDP-α-MSH, MC4-R; settings: for selectivity for MC4-R (binding against MC1-R, MC3-R and MC4-R): in words
T1 construct: expressed in transfected cells; host or cells: HEK-293 (membrane homogenates)
T1 sequence (P32245 whole entry): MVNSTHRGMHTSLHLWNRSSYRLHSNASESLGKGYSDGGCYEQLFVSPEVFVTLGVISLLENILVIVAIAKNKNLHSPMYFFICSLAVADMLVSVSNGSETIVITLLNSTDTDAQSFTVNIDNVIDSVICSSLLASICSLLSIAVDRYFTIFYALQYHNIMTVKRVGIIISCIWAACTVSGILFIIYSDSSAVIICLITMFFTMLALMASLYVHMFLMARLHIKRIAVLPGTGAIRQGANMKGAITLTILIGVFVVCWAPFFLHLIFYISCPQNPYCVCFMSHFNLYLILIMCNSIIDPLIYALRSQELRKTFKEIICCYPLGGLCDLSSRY
Method: Competitive inhibition binding assays were performed using membrane homogenates prepared from HEK-293 cells that express recombinant hMC1-R, hMC3-R, hMC4-R, or hMC5-R. In the examples that follow, all MC1-R, MC3-R, MC4-R and MC5-R values are for human recombinant receptors. Assays were performed in 96 well GF/B Millipore multiscreen filtration plates (MAFB NOB10) pre-coated with 0.5% bovine serum albumin (Fraction V). Membrane homogenates were incubated with 0.1 nM [1^125]-NDP-α-MSH (Perkin Elmer) and increasing concentrations of test peptides of the present invention in buffer containing 25 mM HEPES buffer (pH 7.5) with 100 mM NaCl, 2 mM CaCl2, 2 mM MgCl2, 0.3 mM 1,10-phenanthroline, and 0.1% bovine serum albumin. After incubation for 90 minutes at 37° C., the assay mixture was filtered and the membranes washed with 1 mL of cold 1×PBS wash buffer per well. 35 μL of scintillation cocktail was added to each well and the plates counted on a Microbeta counter for 1 minute per well. Non-specific binding was measured by inhibition of binding of [I^125]-NDP-α-MSH in the presence of 1 μM NDP-α-MSH. Maximal specific binding (100%) was defined as the difference in radioactivity (cpm) bound to cell membranes in the absence and presence of 1 μM NDP-α-MSH. Radioactivity (cpm) obtained in the presence of test compounds was normalized with respect to 100% specific binding to determine the percent inhibition of [I^125]-NDP-α-MSH binding. Each assay was conducted in duplicate and actual mean values are described, with results less than 0% reported as 0%. Ki values for test peptides of the present invention were determined using Graph-Pad Prism® curve-fitting software.
(§1) Alternatively, a competitive inhibition binding assay was performed employing Eu-NDP-α-MSH (PerkinElmer Life Sciences catalog No. AD0225) with determination by time-resolved fluorometry (TRF) of the lanthanide chelate. In comparison studies with [I^125]-NDP-α-MSH, the same values, within experimental error ranges, were obtained for percent inhibition and Ki. Typically competition experiments to determine Ki values were conducted by incubating membrane homogenates prepared from HEK-293 cells that express recombinant hMC4-R with 9 different concentrations of test compounds of interest and 1 nM of Eu-NDP-α-MSH in a solution containing 25 mM HEPES buffer with 100 mM NaCl, 2 mM CaCl2, 2 mM MgCl2, 0.1% BSA, and 0.3 mM 1,10-phenanthroline. After incubation for 90 minutes at 37° C., the reaction was stopped by filtration over AcroWell 96-well filter plates (Pall Life Sciences). The filter plates were washed 4 times with 200 μL of ice-cold phosphate-buffered saline. DELFIA Enhancement solution (PerkinElmer Life Sciences) was added to each well. The plates were incubated on a shaker for 15 minutes and read at 340 nm excitation and 615 nm emission wavelengths. Each assay was conducted in duplicate and mean values were utilized. Ki values were determined by curve-fitting with Graph-Pad Prism® software using a one-site fixed-slope competition binding model.

[2] = Food intake and body weight change in rats; assay type: in vivo, rat; settings: for food intake / rate of change in body weight: rat feeding studies, overall finding in words; for decrease in food consumption compared to control: rats
Method: Change in food intake and body weight was evaluated for selected peptides administered by intravenous (IV) or subcutaneous injection routes. Male Sprague-Dawley rats were obtained from Hilltop Lab Animals, Inc. (Scottsdale, Pa.) or other vendors. Animals were individually housed in conventional polystyrene hanging cages and maintained on a controlled 12 hour on/off light cycle. Water and pelleted food was provided ad libitum. The rats were dosed IV with vehicle or selected peptides (0.3 to 1.0 mg/kg), or dosed subcutaneously with vehicle or selected peptides (doses up to 30 mg/kg). The changes in body weight and food intake for the 24 hour period after dosing was determined. The changes in body weight and food intake for the 48 hour and 72 hour periods after dosing can also be measured to determine reversal of changes in body weight and food intake effects back to baseline levels.

[3] = Induction of penile erection in male rats; assay type: in vivo, rat; settings: for increase in observed spontaneous erections: in words
Method: The ability of peptides of the present invention to induce penile erection (PE) in male rats were evaluated with selected peptides. Male Sprague-Dawley rats weighing 250-300 g were kept on a 12 hour on/off light cycle with food and water ad libitum. All behavioral studies were performed between 9 a.m. and 4 p.m. Groups of 6-8 rats were administered peptides at a variety of doses via an IV route. Immediately after treatment, rats were placed into individual polystyrene cages (27 cm long, 16 cm wide, and 25 cm high) for behavioral observation, typically by remote video monitoring. Rats are observed for one hour, and the number of yawns, grooming bouts and PEs are recorded in 10-minute bins.

hMC4-R [4] = target: T1, hMC4-R; assay: Assay for agonist activity (cAMP accumulation in HEK-293 cells expressing hMC4-R); assay type: cell-based
Method: Accumulation of intracellular cAMP was examined as a measure of the ability of the peptides of the present invention to elicit a functional response in HEK-293 cells that express MC4-R. Confluent HEK-293 cells that express recombinant hMC4-R were detached from culture plates by incubation in enzyme-free cell dissociation buffer. Dispersed cells were suspended in Earle's Balanced Salt Solution containing 10 mM HEPES (pH 7.5), 1 mM MgCl2, 1 mM glutamine, 0.5% albumin and 0.3 mM 3-isobutyl-1-methyl-xanthine (IBMX), a phosphodiesterase inhibitor. The cells were plated in 96-well plates at a density of 0.5×10^5 cells per well and pre-incubated for 10 minutes. Cells were exposed for 15 minutes at 37° C. to peptides of the present invention dissolved in DMSO (final DMSO concentration of 1%) at a concentration range of 0.05-5000 nM in a total assay volume of 200 μL. NDP-α-MSH was used as the reference agonist. cAMP levels were determined by an HTRF® cAMP cell-based assay system from Cisbio Bioassays utilizing cryptate-labeled anti-cAMP and d2-labeled cAMP, with plates read on a Perkin-Elmer Victor plate reader at […]. Data analysis was performed by nonlinear regression analysis with Graph-Pad Prism® software. The maximum efficacies of the test peptides of the present invention were compared to that achieved by the reference melanocortin agonist NDP-α-MSH.

[5] = target: human melanocortin-4 receptor (recombinant hMC4-R) (human) (UniProt P32245); assay: cell-based or functional assay
human melanocortin-4 receptor (recombinant hMC4-R) (human), sequence (P32245 whole entry): as above

[6] = target: T2, human melanocortin-3 receptor (recombinant hMC3-R) (human, UniProt P41968 1-323); assay: competitive binding vs labelled NDP-α-MSH, hMC3-R membranes
T2 construct: whole, on cells; Membrane homogenates of HEK-293 cells expressing the recombinant receptor
T2 sequence (P41968 whole entry): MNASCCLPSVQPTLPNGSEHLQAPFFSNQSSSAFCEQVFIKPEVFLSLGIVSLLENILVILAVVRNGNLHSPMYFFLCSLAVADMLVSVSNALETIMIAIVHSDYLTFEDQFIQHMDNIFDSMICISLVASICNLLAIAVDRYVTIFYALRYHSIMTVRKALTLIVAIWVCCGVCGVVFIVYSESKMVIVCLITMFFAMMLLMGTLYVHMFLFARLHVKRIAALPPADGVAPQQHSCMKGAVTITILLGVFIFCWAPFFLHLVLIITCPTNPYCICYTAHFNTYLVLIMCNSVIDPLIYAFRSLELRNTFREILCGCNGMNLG

[7] = target: T3, human melanocortin-4 receptor (recombinant hMC4-R) (human, UniProt P32245 1-332); assay: cell-based or functional assay
T3 sequence (P32245 whole entry): as the sequence (P32245 whole entry) above

[8] = target: T3, human melanocortin-4 receptor …; assay: competitive binding vs Eu-NDP-α-MSH, TRF, hMC4-R HEK-293 membranes
Method: as §1, with “[I¹²⁵]-NDP-α-MSH,” for “[I^125]-NDP-α-MSH,”, “Typically competition experiments to determine Ki values were conducted by incubating membrane homogenates prepared from HEK-293 cells that express recombinant hMC4-R with 9 different concentrations of test compounds of interest and 1 nM of Eu-NDP-α-MSH in a solution containing 25 mM HEPES buffer with 100 mM NaCl, 2 mM CaCl2, 2 mM MgCl2, 0.1% BSA, and 0.3 mM 1,10-phenanthroline.” left out
Peptides of the following structures were synthesized by the general methods described above, and except where indicated MC4-R Ki values for each peptide were determined in competitive binding assays using Eu-NDP-α-MSH as described in 7.2 above.

[9] = competitive binding using Eu-NDP-α-MSH, human recombinant receptor, read-out: MC4-R Ki
[10] = competitive studies using Eu-NDP-α-MSH / NDP-α-MSH, average of several studies, read-out: Ki value at MC4-R

Ki (hMC4-R [1]; [9]): 13 nM
Molecule: CC(=O)N[C@@H](CCCNC(=N)N)C(=O)N[C@H]1CCCNC(=O)CC[C@@H](C(N)=O)NC(=O)[C@H](Cc2c[nH]c3ccccc23)NC(=O)[C@H](CCCNC(=N)N)NC(=O)[C@@H](Cc2ccccc2)NC(=O)[C@@H]2CCCN2C1=O [Compound 5, Ac-Arg-cyclo(Orn-Pro-D-Phe-Arg-Trp-Glu)-NH2] (Ac-R[Orn]P[dF]RWE-NH2; lactam 2-7)

Ki (hMC4-R [1]; [9]): 13 nM
Molecule: CC(=O)N[C@@H](CCCNC(=N)N)C(=O)N[C@H]1CCC(=O)NCCC[C@@H](C(=O)O)NC(=O)[C@H](Cc2c[nH]c3ccccc23)NC(=O)[C@H](CCCNC(=N)N)NC(=O)[C@@H](Cc2ccccc2)NC(=O)[C@H](COCc2ccccc2)NC1=O [Compound 6, Ac-Arg-cyclo(Glu-Ser(Bzl)-D-Phe-Arg-Trp-Orn)-OH]

Ki (hMC4-R [1]; [10]): 11 nM
selectivity for MC4-R (binding against MC1-R, MC3-R and MC4-R) (hMC4-R [1]): highly selective for MC4-R
Molecule: CC(=O)N[C@@H](CCCNC(=N)N)C(=O)N[C@H]1CC(=O)NCCCC[C@@H](C(N)=O)NC(=O)[C@H](Cc2c[nH]c3ccccc23)NC(=O)[C@H](CCCNC(=N)N)NC(=O)[C@@H](Cc2ccccc2)NC(=O)[C@@H]2CCCN2C1=O [Compound 3, Ac-Arg-cyclo(Asp-Pro-D-Phe-Arg-Trp-Lys)-NH2]
food intake [2]: reduce food intake
rate of change in body weight [2]: decrease the rate of change in body weight
decrease in food consumption compared to control ([2]; 0.3 mg/kg, 0-2 hour period): statistically significant
decrease in food consumption compared to control ([2]; 0.3 mg/kg, 0-4 hour period): statistically significant
decrease in food consumption compared to control ([2]; 0.3 mg/kg, 0-20 hour period): statistically significant
decrease in food consumption compared to control ([2]; 1 mg/kg, 0-2 hour period): statistically significant
decrease in food consumption compared to control ([2]; 1 mg/kg, 0-4 hour period): statistically significant
decrease in food consumption compared to control ([2]; 1 mg/kg, 0-20 hour period): statistically significant
average spontaneous erections per rat in one hour ([3]; IV, 0.3 mg/kg): 1.143±0.553 spontaneous erections per rat in one hour
average spontaneous erections per rat in one hour ([3]; IV, 1 mg/kg): 1.286±0.421 spontaneous erections per rat in one hour
increase in observed spontaneous erections ([3]; IV): not found to result in a statistically significant increase

Ki (hMC4-R [1]; [10]): 12 nM
selectivity for MC4-R (binding against MC1-R, MC3-R and MC4-R) (hMC4-R [1]): highly selective for MC4-R
Emax (hMC4-R [4]; HEK293, NDP-α-MSH is 100%, read-out: intrinsic activity at MC4-R): 38%
intrinsic activity at MC4-R (hMC4-R [4]; NDP-α-MSH is 100%): 47%
EC50 (hMC4-R [4]; functional studies at MC4-R, average of several studies): 2 nM
functional classification at MC4-R (hMC4-R [4]; in words): partial agonist
Molecule: CC(=O)N[C@@H](CCCNC(=N)N)C(=O)N[C@H]1CC(=O)NCCCC[C@@H](C(=O)O)NC(=O)[C@H](Cc2c[nH]c3ccccc23)NC(=O)[C@H](CCCNC(=N)N)NC(=O)[C@@H](Cc2ccccc2)NC(=O)[C@H](COCc2ccccc2)NC1=O [Compound 1, Ac-Arg-cyclo(Asp-Ser(Bzl)-D-Phe-Arg-Trp-Lys)-OH]
food intake [2]: reduce food intake
rate of change in body weight [2]: decrease the rate of change in body weight
decrease in food consumption compared to control ([2]; 0.3 mg/kg, 0-4 hour period): statistically significant
decrease in food consumption compared to control ([2]; 1 mg/kg, 0-2 hour period): statistically significant
decrease in food consumption compared to control ([2]; 1 mg/kg, 0-4 hour period): statistically significant
decrease in food consumption compared to control ([2]; 1 mg/kg, 0-20 hour period): statistically significant
average spontaneous erections per rat in one hour ([3]; IV, 1 mg/kg): 1.5±0.378 spontaneous erections per rat in one hour
increase in observed spontaneous erections ([3]; IV): not found to result in a statistically significant increase

Molecule: CCCC[C@H](NC(C)=O)C(=O)N[C@H]1CC(=O)NCCCC[C@@H](C(=O)O)NC(=O)[C@H](Cc2c[nH]c3ccccc23)NC(=O)[C@H](CCCN=C(N)N)NC(=O)[C@@H](Cc2ccccc2)NC(=O)[C@H](Cc2cnc[nH]2)NC1=O [bremelanotide, Ac-Nle-cyclo(Asp-His-D-Phe-Arg-Trp-Lys)-OH, reference compound]
average spontaneous erections per rat in one hour ([3]; IV, 1 mg/kg): 4.875±0.990 spontaneous erections per rat in one hour and 3.167±0.79 spontaneous erections per rat in one hour
average spontaneous erections per rat in one hour ([3]; positive control, dose not stated in this study): 3.714±0.680 spontaneous erections per rat in one hour

EC50 (cAMP accumulation, HEK-293 cells expressing hMC4-R) [5]: 2 nM
intrinsic activity (cAMP accumulation, HEK-293 cells expressing hMC4-R) [5]: 47%
B1: cyclic peptide of Compound 7, Ac-Arg-cyclo(Orn-Ser(Bzl)-D-Phe-Arg-Trp-Glu)-OH (peptide)
peptide: Ac-R[Orn][Ser(Bzl)][dF]RWE-OH
modifications: lactam 2-7; also: TFA salt

Ki [6]: 125 nM
EC50 (cAMP accumulation, HEK-293 cells expressing hMC4-R) [7]: 10 nM
B2: cyclic peptide of Compound 3, Ac-Arg-cyclo(Asp-Pro-D-Phe-Arg-Trp-Lys)-NH2 (peptide)
peptide: RDPXRWK
modifications: N-terminal acetyl (Ac); D-Phe at position 4; side-chain lactam cyclo(Asp2-Lys7); C-terminal amide (-NH2)
notes: Synthetic cyclic heptapeptide; prepared as TFA salt; also called No. 3

Ki [8]: 116 nM
B3: Ac-Arg-cyclo(Asp-Pro-D-Phe-Arg-trp-Lys)-OH (peptide)
peptide: RDPXRWK
modifications: not fully specified; N-terminal acetyl (Ac); D-Phe at position 4; side-chain lactam cyclo(Asp2-Lys7); C-terminal -OH; position 6 printed 'trp' in the table and in claim 5 but 'Trp' in the 2nd table
notes: Synthetic cyclic heptapeptide; also called Compound 8; No. 8
